Measurements reported in patent US9458122B2, “Process for purifying crude furan 2,5-dicarboxylic acid using hydrogenation” (Eastman Chemical Company, priority 2012, dated 2016).

Experiment: solubility of FDCA in water at different temperatures
Assay type: physicochemical
Conditions: ambient pressure, as water temperature increases beyond 130° C. (FIG. 2)
Description: FIG. 2 depicts the solubility of FDCA in water at different temperatures.
Suitable dissolution temperatures are those effective to dissolve the desired amount of FDCA solids into solution. The hydrogenation solvent composition may be added at (by pre-heating) or heated in the dissolution zone to a temperature of at least 120° C. under a pressure and time sufficient to allow for at least 80 wt. % dissolution, although to reduce the time required for dissolution, it is desirable that the hydrogenation solvent composition temperature is at least 130° C., or at least 135° C., or at least 140° C., or at least 150° C.

O=C(O)c1ccc(C(=O)O)o1 [FDCA, Furan 2,5-dicarboxylic acid]
solubility of FDCA in water: increases dramatically
